# Data reported in PubChem BioAssay (NCI).
#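 Growth conditions: 96-well plates. Treatment: test compound, 48 hours, 5 concentrations. Analysis: linear interpolation between bracketing concentrations; unreached endpoints set to highest concentration. TGI marks complete inhibition of growth.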
# Experiments:
# Test in all cases: NCI anticancer screen, dose series, 48 h
# 786-0 renal = test system: 786-0 renal
# A498 renal = test system: A498 renal
# A549 NSCLC = test system: A549 NSCLC
# ACHN renal = test system: ACHN renal
# BT-549 breast = test system: BT-549 breast
# CAKI-1 renal = test system: CAKI-1 renal
# CCRF-CEM leukemia = test system: CCRF-CEM leukemia
# COLO 205 colon = test system: COLO 205 colon
# DU-145 prostate = test system: DU-145 prostate
# EKVX NSCLC = test system: EKVX NSCLC
# HCC-2998 colon = test system: HCC-2998 colon
# HCT-116 colon = test system: HCT-116 colon
# HCT-15 colon = test system: HCT-15 colon
# HL-60(TB) leukemia = test system: HL-60(TB) leukemia
# HOP-62 NSCLC = test system: HOP-62 NSCLC
# HOP-92 NSCLC = test system: HOP-92 NSCLC
# HS 578T breast = test system: HS 578T breast
# HT29 colon = test system: HT29 colon
# IGROV1 ovarian = test system: IGROV1 ovarian
# K-562 leukemia = test system: K-562 leukemia
# KM12 colon = test system: KM12 colon
# LOX IMVI melanoma = test system: LOX IMVI melanoma
# M14 melanoma = test system: M14 melanoma
# MALME-3M melanoma = test system: MALME-3M melanoma
# MCF7 breast = test system: MCF7 breast
# MDA-MB-231 breast = test system: MDA-MB-231 breast
# MDA-MB-435 = test system: MDA-MB-435
# MDA-N = test system: MDA-N
# MOLT-4 leukemia = test system: MOLT-4 leukemia
# NCI-H226 lung = test system: NCI-H226 lung
# NCI-H23 lung = test system: NCI-H23 lung
# NCI-H460 lung = test system: NCI-H460 lung
# NCI-H522 lung = test system: NCI-H522 lung
# NCI/ADR-RES ovarian = test system: NCI/ADR-RES ovarian
# OVCAR-3 ovarian = test system: OVCAR-3 ovarian
# OVCAR-4 ovarian = test system: OVCAR-4 ovarian
# OVCAR-5 ovarian = test system: OVCAR-5 ovarian
# OVCAR-8 ovarian = test system: OVCAR-8 ovarian
# PC-3 prostate = test system: PC-3 prostate
# RPMI-8226 leukemia = test system: RPMI-8226 leukemia
# RXF 393 renal = test system: RXF 393 renal
# SF-268 CNS = test system: SF-268 CNS
# SF-295 CNS = test system: SF-295 CNS
# SF-539 CNS = test system: SF-539 CNS
# SK-MEL-2 melanoma = test system: SK-MEL-2 melanoma
# SK-MEL-28 melanoma = test system: SK-MEL-28 melanoma
# SK-MEL-5 melanoma = test system: SK-MEL-5 melanoma
# SK-OV-3 ovarian = test system: SK-OV-3 ovarian
# SN12C renal = test system: SN12C renal
# SNB-19 CNS = test system: SNB-19 CNS
# SNB-75 CNS = test system: SNB-75 CNS
# SR leukemia = test system: SR leukemia
# SW-620 colon = test system: SW-620 colon
# T-47D breast = test system: T-47D breast
# TK-10 renal = test system: TK-10 renal
# U251 CNS = test system: U251 CNS
# UACC-257 melanoma = test system: UACC-257 melanoma
# UACC-62 melanoma = test system: UACC-62 melanoma
# UO-31 renal = test system: UO-31 renal
# DMS 114 small cell lung = test system: DMS 114 small cell lung
# HOP-18 NSCLC = test system: HOP-18 NSCLC
# KM20L2 colon = test system: KM20L2 colon
# LXFL 529 NSCLC = test system: LXFL 529 NSCLC
# M19-MEL melanoma = test system: M19-MEL melanoma
# SNB-78 CNS = test system: SNB-78 CNS
compound,measurement,setting,value
CNC(=O)N(CCC#N)CCN(C(=O)N(C)C)c1ccccc1,TGI,786-0 renal,> 100 µM
same,TGI,A498 renal,> 100 µM
same,TGI,A549 NSCLC,> 100 µM
same,TGI,ACHN renal,> 100 µM
same,TGI,BT-549 breast,> 100 µM
same,TGI,CAKI-1 renal,> 100 µM
same,TGI,CCRF-CEM leukemia,> 100 µM
same,TGI,COLO 205 colon,> 100 µM
same,TGI,DU-145 prostate,> 100 µM
same,TGI,EKVX NSCLC,> 100 µM
same,TGI,HCC-2998 colon,> 100 µM
same,TGI,HCT-116 colon,> 100 µM
same,TGI,HCT-15 colon,> 100 µM
same,TGI,HL-60(TB) leukemia,> 100 µM
same,TGI,HOP-62 NSCLC,> 100 µM
same,TGI,HOP-92 NSCLC,> 100 µM
same,TGI,HS 578T breast,> 100 µM
same,TGI,HT29 colon,> 100 µM
same,TGI,IGROV1 ovarian,> 100 µM
same,TGI,K-562 leukemia,> 100 µM
same,TGI,KM12 colon,> 100 µM
same,TGI,LOX IMVI melanoma,> 100 µM
same,TGI,M14 melanoma,> 100 µM
same,TGI,MALME-3M melanoma,> 100 µM
same,TGI,MCF7 breast,> 100 µM
same,TGI,MDA-MB-231 breast,> 100 µM
same,TGI,MDA-MB-435,> 100 µM
same,TGI,MDA-N,> 100 µM
same,TGI,MOLT-4 leukemia,> 100 µM
same,TGI,NCI-H226 lung,> 100 µM
same,TGI,NCI-H23 lung,> 100 µM
same,TGI,NCI-H460 lung,> 100 µM
same,TGI,NCI-H522 lung,> 100 µM
same,TGI,NCI/ADR-RES ovarian,> 100 µM
same,TGI,OVCAR-3 ovarian,> 100 µM
same,TGI,OVCAR-4 ovarian,> 100 µM
same,TGI,OVCAR-5 ovarian,> 100 µM
same,TGI,OVCAR-8 ovarian,> 100 µM
same,TGI,PC-3 prostate,> 100 µM
same,TGI,RPMI-8226 leukemia,> 100 µM
same,TGI,RXF 393 renal,> 100 µM
same,TGI,SF-268 CNS,> 100 µM
same,TGI,SF-295 CNS,> 100 µM
same,TGI,SF-539 CNS,> 100 µM
same,TGI,SK-MEL-2 melanoma,> 100 µM
same,TGI,SK-MEL-28 melanoma,> 100 µM
same,TGI,SK-MEL-5 melanoma,> 100 µM
same,TGI,SK-OV-3 ovarian,> 100 µM
same,TGI,SN12C renal,> 100 µM
same,TGI,SNB-19 CNS,> 100 µM
same,TGI,SNB-75 CNS,> 100 µM
same,TGI,SR leukemia,> 100 µM
same,TGI,SW-620 colon,> 100 µM
same,TGI,T-47D breast,> 100 µM
same,TGI,TK-10 renal,> 100 µM
same,TGI,U251 CNS,> 100 µM
same,TGI,UACC-257 melanoma,> 100 µM
same,TGI,UACC-62 melanoma,> 100 µM
same,TGI,UO-31 renal,> 100 µM
O=C1C(=C2CCCC2)CCC1CN1CCCCC1 (stereo unspecified),TGI,786-0 renal,26.4 µM
same,TGI,A498 renal,35.7 µM
same,TGI,A549 NSCLC,> 100 µM
same,TGI,CCRF-CEM leukemia,36.6 µM
same,TGI,COLO 205 colon,73.5 µM
same,TGI,DMS 114 small cell lung,41.2 µM
same,TGI,EKVX NSCLC,35.4 µM
same,TGI,HCC-2998 colon,29.8 µM
same,TGI,HCT-116 colon,38.1 µM
same,TGI,HCT-15 colon,31.2 µM
same,TGI,HL-60(TB) leukemia,21.9 µM
same,TGI,HOP-18 NSCLC,28.7 µM
same,TGI,HOP-92 NSCLC,37.7 µM
same,TGI,HT29 colon,42.1 µM
same,TGI,IGROV1 ovarian,36.3 µM
same,TGI,K-562 leukemia,47.1 µM
same,TGI,KM12 colon,39.7 µM
same,TGI,KM20L2 colon,32.9 µM
same,TGI,LXFL 529 NSCLC,26.2 µM
same,TGI,M14 melanoma,29.6 µM
same,TGI,M19-MEL melanoma,> 100 µM
same,TGI,MALME-3M melanoma,30.5 µM
same,TGI,MOLT-4 leukemia,41.9 µM
same,TGI,NCI-H23 lung,36.4 µM
same,TGI,NCI-H522 lung,3.45 µM
same,TGI,OVCAR-3 ovarian,30.6 µM
same,TGI,OVCAR-4 ovarian,30.3 µM
same,TGI,OVCAR-5 ovarian,39.8 µM
same,TGI,OVCAR-8 ovarian,43.4 µM
same,TGI,RXF 393 renal,30 µM
same,TGI,SF-268 CNS,37.5 µM
same,TGI,SF-295 CNS,> 100 µM
same,TGI,SF-539 CNS,50.1 µM
same,TGI,SK-MEL-2 melanoma,30.7 µM
same,TGI,SK-MEL-28 melanoma,31.3 µM
same,TGI,SK-MEL-5 melanoma,34.1 µM
same,TGI,SN12C renal,30.6 µM
same,TGI,SNB-19 CNS,> 100 µM
same,TGI,SNB-75 CNS,15.5 µM
same,TGI,SNB-78 CNS,41.4 µM
same,TGI,SR leukemia,47.1 µM
same,TGI,SW-620 colon,32.1 µM
same,TGI,TK-10 renal,27.1 µM
same,TGI,U251 CNS,> 100 µM
same,TGI,UACC-257 melanoma,34.8 µM
same,TGI,UACC-62 melanoma,34 µM
same,TGI,UO-31 renal,> 100 µM
